Consider seven molecules from PubChem BioAssay (NCI).

Test in all cases: inhibition of tumour cell growth, NCI panel, 48 h
The subject of experiment [1] is T-47D breast.
In experiment [2] the test system is RPMI-8226 leukemia.
In experiment [3] the test system is TK-10 renal.
For experiment [4], the system named is MDA-MB-435.
In experiment [5] the test system is A498 renal.
The subject of experiment [6] is ACHN renal.
Experiment [7] deals with SR leukemia.
Experiment [8] concerns KM12 colon.
The subject of experiment [9] is UO-31 renal.
In experiment [10] the test system is MCF7 breast.
The subject of experiment [11] is SK-MEL-5 melanoma.
For experiment [12], the system named is HOP-62 NSCLC.
The test system of experiment [13] is MOLT-4 leukemia.
Experiment [14] relates to SNB-19 CNS.
Experiment [15] has as its system NCI-H460 lung.
The subject of experiment [16] is K-562 leukemia.
The subject of experiment [17] is HL-60(TB) leukemia.
Experiment [18] relates to SNB-75 CNS.
Experiment [19] concerns CCRF-CEM leukemia.

SMILES strings stand for the structures.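 How tested: cells in 96-well plates exposed to compound for 48 hours at five concentrations. TGI: total growth inhibition.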 Some results are limits rather than exact numbers.

As for `O=C1OCCC12CN(Cc1ccccc1)N=N2` (stereo not drawn), the TGI in experiment [1], in experiment [2], in experiment [3], in experiment [4], in experiment [5] and in [6] was greater than 100 µM each time. Also, the TGI was 74.6 µM in experiment [7]; greater than 100 µM in experiment [8]; greater than 100 µM in experiment [9]; greater than 100 µM in [10]; greater than 100 µM in experiment [11]; greater than 100 µM in experiment [12]. Also, the TGI in experiment [13], in [14], in experiment [15] and in experiment [16] was greater than 100 µM each time.
For `Cc1ccc(N/N=C/C2=CC(C)(C)C(C#N)(C#N)C(O)=C2C#N)cc1`, the TGI in experiment [1] is greater than 100 µM; in experiment [17], 58.1 µM; in experiment [2], 93.7 µM; in experiment [3] it was greater than 100 µM; in experiment [4], greater than 100 µM; in [6], greater than 100 µM. Also, the TGI in [18] was greater than 100 µM; in experiment [7] it was 91.2 µM; in experiment [8], greater than 100 µM; in [9], greater than 100 µM; in [10] it was greater than 100 µM; in experiment [11], greater than 100 µM. Further, the TGI in experiment [12], in [13], in experiment [14], in [19], in [15] and in experiment [16] was greater than 100 µM each time.
For `CC(=O)N(CN1C(=O)CCC1C(=O)O)c1ccc(C)cc1` (stereo not drawn), the TGI in [1], in [17], in experiment [2], in experiment [3], in [4] and in [5] was greater than 100 µM each time. The TGI in experiment [6], in [18], in [8], in [9], in [10] and in experiment [11] was greater than 100 µM in each case. Also, the TGI in experiment [12], in [13], in [14], in experiment [19], in experiment [15] and in [16] was greater than 100 µM each time.
In the case of `COc1c(C(=O)/C(=N/Nc2cccc(Cl)c2)C(C)=O)c(O)c(OC)c2occc12`, the TGI in [1] was 88.9 µM; in [17], greater than 100 µM; in [2], greater than 100 µM; in [3], greater than 100 µM; in [4], greater than 100 µM; in experiment [6] it was greater than 100 µM. Further, the TGI in experiment [18], in [7], in [8], in experiment [9], in experiment [10] and in experiment [11] was greater than 100 µM each time. Moreover, the TGI in experiment [12], in experiment [13], in experiment [14], in experiment [19], in experiment [15] and in experiment [16] was greater than 100 µM each time.
Regarding `OC1C2CCC3C2CC(C(O)(c2ccccc2)c2ccccc2)C13` (stereo not drawn), the TGI in experiment [1] is greater than 100 µM; in experiment [3], greater than 100 µM; in experiment [4] it was greater than 100 µM; in experiment [5] it was greater than 100 µM; in experiment [6], greater than 100 µM; in experiment [18] it was 43.9 µM. The TGI in experiment [7] is 69.7 µM; in experiment [8], greater than 100 µM; in experiment [9], greater than 100 µM; in [10], greater than 100 µM; in [11], greater than 100 µM; in experiment [12], greater than 100 µM. Also, the TGI in [13] was 74 µM; in [14], greater than 100 µM; in [19] it was 95.1 µM; in [15], greater than 100 µM; in experiment [16] it was greater than 100 µM.
For `CCOP(=O)(OCC)c1cc2cc(O)ccc2oc1=O`, the TGI in [1], in [17], in [2], in experiment [3], in experiment [4] and in [5] was greater than 100 µM in each case. Also, the TGI in experiment [6] is greater than 100 µM; in experiment [18], greater than 100 µM; in [7], greater than 100 µM; in experiment [8] it was greater than 100 µM; in experiment [9], 0.151 µM; in [10] it was greater than 100 µM. Further, the TGI in experiment [11], in experiment [12], in [14], in experiment [19], in [15] and in [16] was greater than 100 µM each time.
With `COc1cc2c(NCCN(C)C)nc3c4cc5c(cc4ccc3c2cc1OC)OCO5`, the TGI was found to be 11.5 µM in experiment [1]; 9.52 µM in experiment [17]; 17.2 µM in experiment [2]; 5.88 µM in [3]; 6.79 µM in experiment [4]; 5.86 µM in [5]. Further, the TGI came to 4.01 µM in experiment [6]; 5.39 µM in experiment [18]; 8.07 µM in [8]; 7.05 µM in [9]; 6.07 µM in experiment [10]; 5.87 µM in experiment [11]. Further, the TGI in experiment [12] is 7.09 µM; in experiment [13], 5.3 µM; in experiment [14] it was 7.15 µM; in [19], 6.44 µM; in [15], 5.38 µM; in experiment [16] it was 7.49 µM.
